This is an account of results in patent US9840528B2, “Thione-platinum(II) complexes and pharmaceutical compositions thereof” (priority 2015, dated 2017).

Data set [1] concerns A549 (human lung carcinoma) cell line. Put plainly: MTT assay, in vitro cytotoxicity against A549. Format: cell-based. To be noted: A549 cells; for in vitro cytotoxicity in comparison, A549: compared with cisplatin, carboplatin or each other; for IC50: MTT, 24 h exposure, read-out: IC50 ± SEM A549. As for the experimental part:
(§1) Monim-ul-Mehboob, A. A. Isab, V. Dhuna, G. Bhatia, K. Dhuna and S. Altuwaijri, New J. Chem., 39 (2015) 377-incorporated herein by reference in its entirety]. The cells were seeded at 3×10^3 cells/well in 100 μL DMEM containing 10% Fetal Bovine Serum (FBS) in 96-well tissue culture plate and incubated for 72 h at 37° C., 5% CO2, in air and 90% relative humidity in CO2 incubator. […] The medium of wells was discarded and 100 μL DMEM containing MTT (0.5 mg/ml) was added to the wells and incubated in CO2 incubator at 37° C. in dark for 4 h. After incubation, a purple colored formazan produced in the cells appeared as dark crystals in the bottom of the wells. The culture medium was discarded from each well carefully to prevent disruption of monolayer and 100 μL of dimethyl sulfoxide (DMSO) was added in each well. The solution in the wells was thoroughly mixed to dissolve the formazan crystals which produce a purple solution. The absorbance of the 96 well-plates was taken at 570 nm with Labsystems Multiskan EX ELISA reader against a reagent blank. […] The MTT assay was performed in three independent experiments, each in triplicate. […] A549 (human lung carcinoma), MCF7 (human breast cancer), HCT15 (human colon adenocarcinoma), and HeLa (human cervical cancer) cell lines. […] This cytotoxic effect was obtained by the stipulated increase in the concentrations of the complexes and cisplatin against fixed number of human cancer cells. The IC50 concentration of the complexes and Cisplatin for different human cell lines was obtained from curves between the complexes concentration and percentage viability of the cells.
A general note: Formazan colour is commonly taken as a measure of viable cells.

Data set [2] concerns MCF7 (human breast cancer) cell line. Description: MTT assay, in vitro cytotoxicity against MCF7. It is filed as cell-based. Particulars: MCF7 cells; for in vitro cytotoxicity in comparison, MCF7: compared with cisplatin or each other; for IC50: MTT, 24 h exposure, read-out: IC50 ± SEM MCF7. As for the experimental part: as §1
Data set [3] relates to HCT15 (human colon adenocarcinoma) cell line. Put plainly: MTT assay, in vitro cytotoxicity against HCT15. Format: cell-based. Particulars: HCT15 cells; for IC50: MTT, 24 h exposure, read-out: IC50 ± SEM HCT15. As for the experimental part:
as §1

Data set [4] has as its system HeLa (human cervical cancer) cell line. Description: MTT assay, in vitro cytotoxicity against HeLa. It is filed as cell-based. To be noted: 24 h exposure, HeLa cells, read-out: IC50 ± SEM HeLa. How it is done:
as §1

The nature of data set [5]: Stability in DMSO-d6 by time dependent 1H NMR. It is filed as physicochemical. Particulars: spectra after 1, 6, 12, 24, 48 and 72 h. How it is done:
Complexes (1), (5) and (6) were dissolved in DMSO-d6 and their ^1H NMR spectra were measured. The extent of decomposition over time was determined by comparing the NMR spectra collected after 1, 6, 12, 24, 48 and 72 h.

Data set [6] in a line: Solubility in organic solvents. Format: physicochemical.

“Also recorded” adds a separate entry of the source.

For `CC(C)N1CCNC1=S.CC(C)N1CCNC1=S.CC(C)N1CCNC1=S.CC(C)N1CCNC1=S.[Cl-].[Cl-].[Pt+2]` [Complex (4), Tetrakis(1-isopropylimidazolidine-2-thione)platinum(II)], in data set [1], the “in vitro cytotoxicity in comparison, A549” value (“in vitro cytotoxicity … A549” for short) is “almost equal cytotoxicity”. The IC50 in data set [1] worked out at 85.7 ± 1.35 µM; in data set [2], 78.1 ± 1.45 µM; in data set [3] it was 122 ± 1.75 µM; in data set [4] it was 95.44 ± 0.88 µM. In addition, the “in vitro cytotoxicity in comparison, MCF7” value (shortened to “in vitro cytotoxicity … MCF7”) in data set [2] was “very similar cytotoxic data and efficacy”.

For `N.N.O=C([O-])C1(C(=O)[O-])CCC1.[Pt+2]` [Carboplatin, carboplatin, reference compound], the IC50 was 70.2 ± 1.7 µM in data set [1], 53.2 ± 1.65 µM in data set [2], 63.3 ± 1.58 µM in data set [3] and 55 ± 0.94 µM in data set [4].

In the case of `CN1CCNC1=S.CN1CCNC1=S.CN1CCNC1=S.CN1CCNC1=S.O.O.[Cl-].[Cl-].[Pt+2]` [Complex (1), Tetrakis(1-methylimidazolidine-2-thione)platinum(II)], the “in vitro cytotoxicity … A549” value in data set [1] is “in between cisplatin and carboplatin”. Moreover, the IC50 amounted to 55.5 ± 1.08 µM in data set [1], 74.6 ± 1.54 µM in data set [2], 147 ± 1.77 µM in data set [3] and 142 ± 2.42 µM in data set [4]. Further, in data set [2], the “in vitro cytotoxicity … MCF7” value was “very similar cytotoxic data and efficacy”. For the same molecule, the “change in chemical shifts and splitting patterns in time dependent 1H NMR spectra (extent of decomposition)” value in data set [5] is listed as “No significant change”. Also, in data set [6] (CDCl3), the “solubility in CDCl3” value is “moderately soluble”. In addition, the “solubility in DMSO and DMF” value in data set [6] (DMSO and DMF) is given as “completely soluble”.

Consider `CCN1CCCNC1=S.CCN1CCCNC1=S.CCN1CCCNC1=S.CCN1CCCNC1=S.[Pt+2]` [Complex (5), Tetrakis[1-ethyltetrahydropyrimidine-2(1H)-thione]platinum(II)], for which the IC50 in data set [1] was 137 ± 1.77 µM; in data set [2] it was 95 ± 2.02 µM; in data set [3] it was 159 ± 2.9 µM; in data set [4], 166 ± 2.01 µM.

For the molecule `CCCN1CCNC1=S.CCCN1CCNC1=S.CCCN1CCNC1=S.CCCN1CCNC1=S.[Cl-].[Cl-].[Pt+2]` [Complex (3), Tetrakis(1-propylimidazolidine-2-thione)platinum(II)], the “in vitro cytotoxicity … A549” value in data set [1] was “in between cisplatin and carboplatin”. For the same molecule, the IC50 in data set [1] is 59.2 ± 2.6 µM; in data set [2], 62.9 ± 1.51 µM; in data set [3], 95.6 ± 2.14 µM; in data set [4], 133 ± 1.97 µM.

With `N.N.[Cl][Pt][Cl]` [Cisplatin, cisplatin, reference compound], the IC50 in data set [1] is 36.9 ± 1.88 µM; in data set [2], 21.3 ± 1.54 µM; in data set [3], 26.6 ± 1.07 µM; in data set [4], 18.1 ± 1.36 µM. In data set [2], this molecule registered an IC80 of 21.3 µM.

Take `CC(C)N1CCNC1=S.CC(C)N1CCNC1=S.CC(C)N1CCNC1=S.CC(C)N1CCNC1=S.O=[N+]([O-])[O-].O=[N+]([O-])[O-].[Pt+2]` [Complex (7), Tetrakis(1-isopropylimidazolidine-2-thione)platinum(II)]: the “in vitro cytotoxicity … A549” value in data set [1] is “almost equal cytotoxicity”. In addition, the IC50 worked out at 84.2 ± 1.09 µM in data set [1], 74.4 ± 1.28 µM in data set [2], 116 ± 2.09 µM in data set [3] and 99.9 ± 2.25 µM in data set [4]. Further, in data set [2], the “in vitro cytotoxicity … MCF7” value was “very similar cytotoxic data and efficacy”.

`S=C1NCCCCN1.S=C1NCCCCN1.S=C1NCCCCN1.S=C1NCCCCN1.[Cl-].[Cl-].[Pt+2]` [Complex (6), Tetrakis(1,3-diazepane-2-thione)platinum(II)]: the IC50 in data set [1] is 119 ± 2.25 µM; in data set [2], 121 ± 3.36 µM; in data set [3], 108 ± 2.03 µM; in data set [4] it was 92.5 ± 2.45 µM.

`CCN1CCNC1=S.CCN1CCNC1=S.CCN1CCNC1=S.CCN1CCNC1=S.[Cl-].[Cl-].[Pt+2]` [Complex (2), Tetrakis(1-ethylimidazolidine-2-thione)platinum(II)]: in data set [1], the “in vitro cytotoxicity … A549” value is listed as “comparable to that of cisplatin; also recorded: almost two times better than that of carboplatin”. The IC50 in data set [1] came to 37.1 ± 1.23 µM; in data set [2] it was 11.4 ± 1.34 µM; in data set [3] it was 41.6 ± 1.53 µM; in data set [4] it was 79.2 ± 1.95 µM. In addition, it took 11.4 µM to reach the 80% level in data set [2] (IC80). Also, the “in vitro cytotoxicity … MCF7” value in data set [2] is on record as “two-fold better cytotoxic agent against the MCF7 cell line than cisplatin; also recorded: two-fold better as a cytotoxic agent than cisplatin”. Also, the “in vitro cytotoxic efficacy in comparison, HCT15” value in data set [3] (compared with cisplatin and carboplatin) was “lies in between cisplatin's and carboplatin's”. For the same molecule, the “change in chemical shifts and splitting patterns in time dependent 1H NMR spectra (extent of decomposition)” value in data set [5] is “No significant change”.

What is called IC50 is the concentration needed to halve the response being measured. By IC80 is commonly meant the concentration needed for an effect of 80%. Higher therefore signals a need for much substance.
